How the values were obtained:
Format in all cases: in vivo
[1] = tested on: pigweed (Amaranthus retroflexus); test: Test A postemergence; conditions: Amaranthus retroflexus, post-emergence, 240 h, 125 g ai/ha, postemergence; visual injury after approximately 10 d; 0 to 100 scale (0 no effect, 100 complete control); read-out: Plant response rating, Pigweed
How it was run: (§1)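 Visual injury, scored on a 0–100 scale relative to untreated controls, was recorded about 10 d after application. Treatments were a preemergence soil spray over planted seeds or a postemergence spray on plants at the one- to two-leaf stage, 2 to 10 cm tall, all in loam soil–sand blend in the greenhouse.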

[2] = tested on: Galium (catchweed bedstraw, Galium aparine); test: Test A postemergence; conditions: Galium, post-emergence, 240 h, 125 g ai/ha, postemergence; visual injury after approximately 10 d; 0 to 100 scale (0 no effect, 100 complete control); read-out: Plant response rating, Galium
How it was run: as §1

[3] = tested on: ragweed (common ragweed, Ambrosia elatior); test: Test A postemergence; conditions: Ambrosia artemisiifolia, post-emergence, 240 h, 125 g ai/ha, postemergence; visual injury after approximately 10 d; 0 to 100 scale (0 no effect, 100 complete control); read-out: Plant response rating, Ragweed
How it was run: as §1

[4] = tested on: wheat (Triticum aestivum); test: Test A postemergence; conditions: Triticum aestivum, post-emergence, 240 h, 125 g ai/ha, postemergence; visual injury after approximately 10 d; 0 to 100 scale (0 no effect, 100 complete control); read-out: Plant response rating, Wheat
How it was run: as §1

[5] = tested on: giant foxtail (Setaria faberii); test: Test A postemergence; conditions: Setaria faberi, post-emergence, 240 h, 125 g ai/ha, postemergence; visual injury after approximately 10 d; 0 to 100 scale (0 no effect, 100 complete control); read-out: Plant response rating, Foxtail, Giant
How it was run: as §1

[6] = tested on: barnyardgrass (Echinochloa crus-galli); test: Test A postemergence; conditions: Echinochloa crus-galli, post-emergence, 240 h, 125 g ai/ha, postemergence; visual injury after approximately 10 d; 0 to 100 scale (0 no effect, 100 complete control); read-out: Plant response rating, Barnyardgrass
How it was run: as §1

[7] = tested on: ryegrass, Italian (Italian ryegrass, Lolium multiflorum); test: Test A postemergence; conditions: Lolium multiflorum, post-emergence, 240 h, 125 g ai/ha, postemergence; visual injury after approximately 10 d; 0 to 100 scale (0 no effect, 100 complete control); read-out: Plant response rating, Ryegrass, Italian
How it was run: as §1

[8] = tested on: Kochia (Kochia scoparia); test: Test A postemergence; conditions: Bassia scoparia, post-emergence, 240 h, 125 g ai/ha, postemergence; visual injury after approximately 10 d; 0 to 100 scale (0 no effect, 100 complete control); read-out: Plant response rating, Kochia
How it was run: as §1

[9] = tested on: blackgrass (Alopecurus myosuroides); test: Test A postemergence; conditions: Alopecurus myosuroides, post-emergence, 240 h, 125 g ai/ha, postemergence; visual injury after approximately 10 d; 0 to 100 scale (0 no effect, 100 complete control); read-out: Plant response rating, Blackgrass
How it was run: as §1

[10] = tested on: corn (Zea mays); test: Test A postemergence; conditions: Zea mays, post-emergence, 240 h, 125 g ai/ha, postemergence; visual injury after approximately 10 d; 0 to 100 scale (0 no effect, 100 complete control)
How it was run: as §1

[11] = tested on: pigweed (Amaranthus retroflexus); test: Test A preemergence; conditions: Amaranthus retroflexus, pre-emergence, 240 h; for pest or weed control at 125 g/ha: 125 g ai/ha, preemergence, visual rating after approx. 10 d, 0 to 100 scale where 0 is no effect and 100 is complete control, read-out: Plant response rating, Pigweed; for pest or weed control at 500 g/ha: 500 g ai/ha, Preemergence, visual injury vs untreated controls after approximately 10 d, read-out: Pigweed plant response rating (0 to 100 scale where 0 is no effect and 100 is complete control)
[12] = tested on: ragweed (common ragweed, Ambrosia elatior); test: Test A preemergence; conditions: Ambrosia artemisiifolia, pre-emergence, 240 h; for pest or weed control at 125 g/ha: 125 g ai/ha, preemergence, visual rating after approx. 10 d, 0 to 100 scale where 0 is no effect and 100 is complete control, read-out: Plant response rating, Ragweed; for pest or weed control at 500 g/ha: 500 g ai/ha, Preemergence, visual injury vs untreated controls after approximately 10 d, read-out: Ragweed plant response rating (0 to 100 scale where 0 is no effect and 100 is complete control)
How it was run: as §1

[13] = tested on: giant foxtail (Setaria faberii); test: Test A preemergence; conditions: Setaria faberi, pre-emergence, 240 h; for pest or weed control at 125 g/ha: 125 g ai/ha, preemergence, visual rating after approx. 10 d, 0 to 100 scale where 0 is no effect and 100 is complete control, read-out: Plant response rating, Foxtail, Giant; for pest or weed control at 500 g/ha: 500 g ai/ha, Preemergence, visual injury vs untreated controls after approximately 10 d, read-out: Foxtail, Giant plant response rating (0 to 100 scale where 0 is no effect and 100 is complete control)
How it was run: as §1

[14] = tested on: barnyardgrass (Echinochloa crus-galli); test: Test A preemergence; conditions: Echinochloa crus-galli, pre-emergence, 240 h; for pest or weed control at 125 g/ha: 125 g ai/ha, preemergence, visual rating after approx. 10 d, 0 to 100 scale where 0 is no effect and 100 is complete control, read-out: Plant response rating, Barnyardgrass; for pest or weed control at 500 g/ha: 500 g ai/ha, Preemergence, visual injury vs untreated controls after approximately 10 d, read-out: Barnyardgrass plant response rating (0 to 100 scale where 0 is no effect and 100 is complete control)
How it was run: as §1

[15] = tested on: ryegrass, Italian (Italian ryegrass, Lolium multiflorum); test: Test A preemergence; conditions: Lolium multiflorum, pre-emergence, 240 h; for pest or weed control at 125 g/ha: 125 g ai/ha, preemergence, visual rating after approx. 10 d, 0 to 100 scale where 0 is no effect and 100 is complete control, read-out: Plant response rating, Ryegrass, Italian; for pest or weed control at 500 g/ha: 500 g ai/ha, Preemergence, visual injury vs untreated controls after approximately 10 d, read-out: Ryegrass, Italian plant response rating (0 to 100 scale where 0 is no effect and 100 is complete control)
How it was run: as §1

[16] = tested on: Kochia (Kochia scoparia); test: Test A preemergence; conditions: Bassia scoparia, pre-emergence, 240 h; for pest or weed control at 125 g/ha: 125 g ai/ha, preemergence, visual rating after approx. 10 d, 0 to 100 scale where 0 is no effect and 100 is complete control, read-out: Plant response rating, Kochia; for pest or weed control at 500 g/ha: 500 g ai/ha, Preemergence, visual injury vs untreated controls after approximately 10 d, read-out: Kochia plant response rating (0 to 100 scale where 0 is no effect and 100 is complete control)
How it was run: as §1

Structure (SMILES)	pest or weed control at 125 g/ha [1] [%]	pest or weed control at 125 g/ha [2] [%]	pest or weed control at 125 g/ha [3] [%]	plant injury at 125 g/ha [4] [%]	pest or weed control at 125 g/ha [5] [%]	pest or weed control at 125 g/ha [6] [%]	pest or weed control at 125 g/ha [7] [%]	pest or weed control at 125 g/ha [8] [%]	pest or weed control at 125 g/ha [9] [%]	Corn plant response rating (crop injury, 0 = no effect, 100 = complete kill) at 125 g/ha [10] [%]	pest or weed control at 125 g/ha [11] [%]	pest or weed control at 500 g/ha [11] [%]	pest or weed control at 125 g/ha [12] [%]	pest or weed control at 500 g/ha [12] [%]	pest or weed control at 125 g/ha [13] [%]	pest or weed control at 500 g/ha [13] [%]	pest or weed control at 125 g/ha [14] [%]	pest or weed control at 500 g/ha [14] [%]	pest or weed control at 125 g/ha [15] [%]	pest or weed control at 500 g/ha [15] [%]	also measured
O=C1NC[C@H](c2ccc(OC(F)F)cc2)[C@H]1C(=O)Nc1ccccc1F [Compound 778]	10	60	0	0	70	80	20	60	10	0	30	80	40	60	90	90	70	90	0	20	pest or weed control at 125 g/ha [16]: 80%; pest or weed control at 500 g/ha [16]: 80%
CC(F)(F)c1cccc([C@H]2CNC(=O)[C@@H]2C(=O)Nc2ccc(F)cc2F)c1 [Compound 781]	0	60	0	50	80	90	20	0	70	60	0	70	0	0	90	100	80	100	20	50	pest or weed control at 125 g/ha [16]: 50%; pest or weed control at 500 g/ha [16]: 90%
CC(F)(F)c1cccc([C@H]2CNC(=O)[C@@H]2C(=O)Nc2ccccc2F)c1 [Compound 782]	0	70	0	60	90	90	40	10	70	60	0	50	0	20	90	100	80	90	40	60	pest or weed control at 125 g/ha [16]: 80%; pest or weed control at 500 g/ha [16]: 90%
O=C1NC[C@H](c2ccc3c(c2)CCO3)[C@H]1C(=O)Nc1cccc(F)c1F [Compound 785]	0	50	0	0	70	90	30	0	20	0	0	20	0	0	90	90	90	90	0	40	pest or weed control at 125 g/ha [16]: 20%; pest or weed control at 500 g/ha [16]: 40%

Reference: patent US12077503B2, “Substituted cyclic amides and their use as herbicides” (FMC CORPORATION, priority 2015, dated 2024)
